Test results as given in PubChem BioAssay (NCI).
“And” between values parts separate entries of the source, which are not always exact repeats. Equal values may be shown once.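 Grown in 96-well plates, cells were treated for 48 hours with each compound at five concentrations. Insufficient inhibition: endpoint recorded as highest concentration tested. GI50 = concentration required for 50% inhibition of growth. The concentration for full growth arrest is given as TGI.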

Legend:
Test in all cases: NCI-60 cell line screen, 48 h
[1] = system: M14 melanoma
[2] = system: TK-10 renal
[3] = system: IGROV1 ovarian
[4] = system: BT-549 breast
[5] = system: HOP-62 NSCLC
[6] = system: SF-539 CNS
[7] = system: SK-MEL-5 melanoma
[8] = system: UACC-62 melanoma

Row | Compound | GI50 [1] [µM] | TGI [1] | GI50 [2] [µM] | TGI [2] | GI50 [3] [µM] | TGI [3] | GI50 [4] [µM] | TGI [4] | GI50 [5] [µM] | TGI [5] | GI50 [6] [µM] | TGI [6] | GI50 [7] [µM] | TGI [7] | GI50 [8] [µM] | TGI [8]
1 | O=S(=O)(NCCNc1cc(-c2cn(-c3ccccc3)nc2-c2cccc(O)c2)ccn1)c1ccc(C(F)(F)F)cc1 | 2.12 | 7.17 µM | 2.81 | 18.7 µM | 2.36 | 5.89 µM | 2.02 | 7.07 µM | 2.56 | 9.14 µM | 1.59 | 3.48 µM | 1.78 | 3.36 µM | 1.78 | 3.98 µM
2 | CN(C)CC/C=C1\c2ccccc2Sc2ccc(Cl)cc21 | 1.87 | 3.58 µM and 11.4 µM | 1.91 | 3.95 µM and 28.3 µM | 3.24 | 11.3 µM and 26.3 µM | 4.91 | 17.4 µM and 29.2 µM | 1.94 | 5.44 µM and 28 µM | 3.61 | 11.2 µM and 36.2 µM | 1.62 | 3 µM and 28.6 µM | 1.51 | 3.09 µM and 26.7 µM
3 | C#C[C@@]1(O)[C@@H](CO)O[C@@H](n2cc(Cl)c3c(N)ncnc32)[C@@H]1O | 0.177 | 0.585 µM | 0.317 | 1.24 µM | 0.145 | 0.475 µM |  |  | 0.254 | 1.97 µM | 0.324 | 1.45 µM |  |  |  | 
4 | O=C(O)C1C2C=CC(O2)C1C(=O)Nc1ccccc1 (stereo not given) |  | > 100 µM |  | > 100 µM |  | > 100 µM |  | > 100 µM |  | > 100 µM |  |  |  | > 100 µM |  | > 100 µM
5 | Cc1cc(Cl)ccc1Nc1sc(C(=O)c2cc3cc(Cl)ccc3o2)c(N)c1C#N |  | > 100 µM |  | > 73.1 µM |  | > 100 µM |  | > 100 µM |  | > 37.6 µM |  | > 66 µM |  | > 100 µM |  | > 100 µM
6 | COc1ccc(C(=O)/C=C/c2cc3ccccc3[nH]c2=O)cc1 | 19.3 | 47.2 µM | 20.9 | > 100 µM | 28.6 | 97.6 µM | 20.2 | > 42.9 µM | 20.5 | 42.6 µM | 18.7 | 39.8 µM | 25 | > 56.6 µM | 24.4 | > 57.8 µM
7 | Nc1ccccc1NC(=O)c1ccc(CSc2nc(N3CCOCC3)c3cccn3n2)cc1 | 0.756 | > 100 µM | 0.163 | 1.61 µM | 1.18 | > 100 µM | 1.14 | 4.59 µM | 1.49 | 45.9 µM | 0.773 | > 100 µM | 0.415 | 1.61 µM | 0.412 | 2.82 µM
8 | CCN(Cc1ccc(F)cc1)c1ccc(CO)c(Cl)c1 | 12.5 | > 51.8 µM | 0.0366 | 0.181 µM | 0.0776 | 0.605 µM | 9.27 | 29.7 µM | 0.576 | 25.1 µM | 15.1 | 35.1 µM | 1.86 | 15.2 µM | 0.0693 | 0.522 µM
